{"source": "patent USRE38551E1", "about": "“Anticonvulsant enantiomeric amino acid derivatives” (priority 1996, dated 2004)", "key": {"Crl:CoBs CD(SD) rats": {"system": "Crl:CoBs CD(SD) rats", "assay": "thirty-day dose range finding study of Compound A in rats", "settings": "for BR - BRAIN W/STEM organ to terminal body weight ratio mean / HT - HEART organ to terminal body weight ratio mean / KD - KIDNEY organ to terminal body weight ratio mean / LI - LIVER organ to terminal body weight ratio mean / SP - SPLEEN organ to terminal body weight ratio mean / dilated pelves of kidneys, number of animals / TP - TESTIS/EPIDID organ to terminal body weight ratio mean: 30 days oral", "protocol": "More specifically, 50 male and 50 female Crl:CoBs® CD(SD) selected from 68 male and 68 female rats (4 weeks old) were used as test animals in the study 1. The rats were housed individually in elevated wire mesh cages with food (Purina Certified Rodent Chow® 5002) and tap water (via an automated watering system) available ad libitum. Each batch of feed utilized was analyzed by the manufacturer for concentrations of specified heavy metals, aflatoxin, chlorinated hydrocarbons, organophosphates, and specified nutrients.\nAn artificial light cycle of 12 hours light and 12 hours dark was maintained.\nThe rats were selected for use on the study using a computer-generated weight randomization procedure and assigned to the following groups:\nFollowing randomization, the rats were identified with an ear tag bearing a unique permanent identification number. The rats were randomly assigned to treatment groups by first eliminating the ones with extreme body weights (±2 standard deviations from the mean body weight).\nThe desired amount of carboxymethyl cellulose was weighed on an appropriate (milligram) balance, transferred to a precalibrated beaker containing two-thirds of the total value of distilled water, and stirred on a magnetic stirrer until a solution formed. Distilled water was then added to final volume and stirred to achieve a 0.5% w/v solution.\nCompound A was first ground into a powder. The desired amount for each dose level as weighed on an appropriate (milligram) balance and transferred into a precalibrated beaker. A small amount (0.5 to 4ml) of 0.5% carboxymethyl cellulose was added to Compound A and mixed to form a paste. […] Fresh suspensions of Compound A were prepared daily and fresh solutions of 0.5% carboxymethyl cellulose were prepared weekly and stored refrigerated.\nEach rat received Compound A at a dosage factor of 10 milliliters per kilogram of body weight via gavage between 9 a.m. and noon each day. The dosing volume for each rat was calculated and adjusted weekly by the computer from the most recently recorded individual body weight.\nCompound A was administered orally.\nAll rats were observed twice daily for mortality and moribundity. Clinical observations were made prior to dosing and at 1 and 4 hours after dosing. All signs were recorded as they were observed. Individual body weights were recorded at initiation of treatment, at weekly intervals, and at termination while food consumption was recorded weekly.\nFollowing 30 or 31 days of treatment, surviving rats were weighed, anesthetized, and exsanguinated under sodium pentobarbital anesthesia. Complete necropsies were performed on each rat by appropriately trained personnel using procedures approved by board-certified pathologists. Necropsy included examination of the following:\nVarious organs were weighted and compared to the control, e.g., brain with stem, heart, spleen, kidney, liver, sex organs."}, "hexobarbital sleep time": {"system": "hexobarbital sleep time", "assay": "hexobarbital sleep time test", "assay_type": "in vivo", "settings": "rats", "protocol": "All rats subjected to the 5-day tolerance studies were maintained in their home cage for 24 hours and then subjected to the hexobarbital sleep time test (day 6). Each rat in each of the 3 groups was given 100 mg/kg of hexobarbital (i.p.) and the sleep time measured to the nearest minute. The mean sleep time and S.E. for each group were calculated."}, "[1]": {"assay": "rotorod neurologic toxicity test, mice (ip)", "assay_type": "in vivo", "settings": "male, Carthworth Farms No. 1, in vivo, ip; mouse, i.p., rotorod test at peak effect (Table 6); read-out: MOUSE ED50 Neurotox"}, "[2]": {"settings": "female, group 5, 1000 mg/kg/day"}}, "note": "Marks after values point to notes of the source that are not given here."}
{"smiles": "CC(=O)NC(C)C(=O)NCc1ccccc1", "note": "(racemic) [compound 1, N-Acetyl-D,L-alanine-N′-benzylamide]", "values": [{"measurement": "mean kidney weight", "setting": "Crl:CoBs CD(SD) rats; Group 5 males (1000 mg/kg/day × 30 days)", "result": "small increase"}, {"measurement": "BR - BRAIN W/STEM organ to terminal body weight ratio mean", "setting": "Crl:CoBs CD(SD) rats; female, group 2, 30 mg/kg/day", "result": ".887%"}, {"measurement": "HT - HEART organ to terminal body weight ratio mean", "setting": "Crl:CoBs CD(SD) rats; female, group 2, 30 mg/kg/day", "result": ".372%"}, {"measurement": "KD - KIDNEY organ to terminal body weight ratio mean", "setting": "Crl:CoBs CD(SD) rats; female, group 2, 30 mg/kg/day", "result": ".773%"}, {"measurement": "LI - LIVER organ to terminal body weight ratio mean", "setting": "Crl:CoBs CD(SD) rats; female, group 2, 30 mg/kg/day", "result": 3.122, "unit": "%"}, {"measurement": "SP - SPLEEN organ to terminal body weight ratio mean", "setting": "Crl:CoBs CD(SD) rats; female, group 2, 30 mg/kg/day", "result": ".204%"}, {"measurement": "BR - BRAIN W/STEM organ to terminal body weight ratio mean", "setting": "Crl:CoBs CD(SD) rats; female, group 3, 100 mg/kg/day", "result": ".899%"}, {"measurement": "HT - HEART organ to terminal body weight ratio mean", "setting": "Crl:CoBs CD(SD) rats; female, group 3, 100 mg/kg/day", "result": ".345%"}, {"measurement": "KD - KIDNEY organ to terminal body weight ratio mean", "setting": "Crl:CoBs CD(SD) rats; female, group 3, 100 mg/kg/day", "result": ".768%"}, {"measurement": "LI - LIVER organ to terminal body weight ratio mean", "setting": "Crl:CoBs CD(SD) rats; female, group 3, 100 mg/kg/day", "result": 3.166, "unit": "%"}, {"measurement": "SP - SPLEEN organ to terminal body weight ratio mean", "setting": "Crl:CoBs CD(SD) rats; female, group 3, 100 mg/kg/day", "result": ".200%"}, {"measurement": "BR - BRAIN W/STEM organ to terminal body weight ratio mean", "setting": "Crl:CoBs CD(SD) rats; female, group 4, 300 mg/kg/day", "result": ".934%"}, {"measurement": "HT - HEART organ to terminal body weight ratio mean", "setting": "Crl:CoBs CD(SD) rats; female, group 4, 300 mg/kg/day", "result": ".373%"}, {"measurement": "KD - KIDNEY organ to terminal body weight ratio mean", "setting": "Crl:CoBs CD(SD) rats; female, group 4, 300 mg/kg/day", "result": ".770%"}, {"measurement": "LI - LIVER organ to terminal body weight ratio mean", "setting": "Crl:CoBs CD(SD) rats; female, group 4, 300 mg/kg/day", "result": 3.172, "unit": "%"}, {"measurement": "SP - SPLEEN organ to terminal body weight ratio mean", "setting": "Crl:CoBs CD(SD) rats; female, group 4, 300 mg/kg/day", "result": ".198%"}, {"measurement": "BR - BRAIN W/STEM organ to terminal body weight ratio mean", "setting": "Crl:CoBs CD(SD) rats; [2]", "result": ".891%"}, {"measurement": "HT - HEART organ to terminal body weight ratio mean", "setting": "Crl:CoBs CD(SD) rats; [2]", "result": ".347%"}, {"measurement": "KD - KIDNEY organ to terminal body weight ratio mean", "setting": "Crl:CoBs CD(SD) rats; [2]", "result": ".763%"}, {"measurement": "LI - LIVER organ to terminal body weight ratio mean", "setting": "Crl:CoBs CD(SD) rats; [2]", "result": "3.739* %"}, {"measurement": "SP - SPLEEN organ to terminal body weight ratio mean", "setting": "Crl:CoBs CD(SD) rats; [2]", "result": ".189%"}, {"measurement": "dilated pelves of kidneys, number of animals", "setting": "Crl:CoBs CD(SD) rats; females, Group 5 (1000 mg/kg/day)", "result": "two"}, {"measurement": "BR - BRAIN W/STEM organ to terminal body weight ratio mean", "setting": "Crl:CoBs CD(SD) rats; male, group 2, 30 mg/kg/day", "result": ".593%"}, {"measurement": "HT - HEART organ to terminal body weight ratio mean", "setting": "Crl:CoBs CD(SD) rats; male, group 2, 30 mg/kg/day", "result": ".313%"}, {"measurement": "KD - KIDNEY organ to terminal body weight ratio mean", "setting": "Crl:CoBs CD(SD) rats; male, group 2, 30 mg/kg/day", "result": ".719%"}, {"measurement": "LI - LIVER organ to terminal body weight ratio mean", "setting": "Crl:CoBs CD(SD) rats; male, group 2, 30 mg/kg/day", "result": 2.849, "unit": "%"}, {"measurement": "SP - SPLEEN organ to terminal body weight ratio mean", "setting": "Crl:CoBs CD(SD) rats; male, group 2, 30 mg/kg/day", "result": ".172%"}, {"measurement": "TP - TESTIS/EPIDID organ to terminal body weight ratio mean", "setting": "Crl:CoBs CD(SD) rats; male, group 2, 30 mg/kg/day", "result": 1.265, "unit": "%"}, {"measurement": "BR - BRAIN W/STEM organ to terminal body weight ratio mean", "setting": "Crl:CoBs CD(SD) rats; male, group 3, 100 mg/kg/day", "result": ".599%"}, {"measurement": "HT - HEART organ to terminal body weight ratio mean", "setting": "Crl:CoBs CD(SD) rats; male, group 3, 100 mg/kg/day", "result": ".314%"}, {"measurement": "KD - KIDNEY organ to terminal body weight ratio mean", "setting": "Crl:CoBs CD(SD) rats; male, group 3, 100 mg/kg/day", "result": ".694%"}, {"measurement": "LI - LIVER organ to terminal body weight ratio mean", "setting": "Crl:CoBs CD(SD) rats; male, group 3, 100 mg/kg/day", "result": "3.059* %"}, {"measurement": "SP - SPLEEN organ to terminal body weight ratio mean", "setting": "Crl:CoBs CD(SD) rats; male, group 3, 100 mg/kg/day", "result": ".166%"}, {"measurement": "TP - TESTIS/EPIDID organ to terminal body weight ratio mean", "setting": "Crl:CoBs CD(SD) rats; male, group 3, 100 mg/kg/day", "result": 1.219, "unit": "%"}, {"measurement": "dilated pelves of kidneys, number of animals", "setting": "Crl:CoBs CD(SD) rats; male, group 3, 100 mg/kg/day", "result": "one"}, {"measurement": "BR - BRAIN W/STEM organ to terminal body weight ratio mean", "setting": "Crl:CoBs CD(SD) rats; male, group 4, 300 mg/kg/day", "result": ".581%"}, {"measurement": "HT - HEART organ to terminal body weight ratio mean", "setting": "Crl:CoBs CD(SD) rats; male, group 4, 300 mg/kg/day", "result": ".328%"}, {"measurement": "KD - KIDNEY organ to terminal body weight ratio mean", "setting": "Crl:CoBs CD(SD) rats; male, group 4, 300 mg/kg/day", "result": ".695%"}, {"measurement": "LI - LIVER organ to terminal body weight ratio mean", "setting": "Crl:CoBs CD(SD) rats; male, group 4, 300 mg/kg/day", "result": "3.101* %"}, {"measurement": "SP - SPLEEN organ to terminal body weight ratio mean", "setting": "Crl:CoBs CD(SD) rats; male, group 4, 300 mg/kg/day", "result": ".163%"}, {"measurement": "TP - TESTIS/EPIDID organ to terminal body weight ratio mean", "setting": "Crl:CoBs CD(SD) rats; male, group 4, 300 mg/kg/day", "result": 1.212, "unit": "%"}, {"measurement": "dilated pelves of kidneys, number of animals", "setting": "Crl:CoBs CD(SD) rats; male, group 4, 300 mg/kg/day", "result": "one"}, {"measurement": "BR - BRAIN W/STEM organ to terminal body weight ratio mean", "setting": "Crl:CoBs CD(SD) rats; male, group 5, 1000 mg/kg/day", "result": ".571%"}, {"measurement": "HT - HEART organ to terminal body weight ratio mean", "setting": "Crl:CoBs CD(SD) rats; male, group 5, 1000 mg/kg/day", "result": ".343%"}, {"measurement": "KD - KIDNEY organ to terminal body weight ratio mean", "setting": "Crl:CoBs CD(SD) rats; male, group 5, 1000 mg/kg/day", "result": ".770%"}, {"measurement": "LI - LIVER organ to terminal body weight ratio mean", "setting": "Crl:CoBs CD(SD) rats; male, group 5, 1000 mg/kg/day", "result": "3.683* %"}, {"measurement": "SP - SPLEEN organ to terminal body weight ratio mean", "setting": "Crl:CoBs CD(SD) rats; male, group 5, 1000 mg/kg/day", "result": ".176%"}, {"measurement": "TP - TESTIS/EPIDID organ to terminal body weight ratio mean", "setting": "Crl:CoBs CD(SD) rats; male, group 5, 1000 mg/kg/day", "result": 1.202, "unit": "%"}, {"measurement": "mean liver weight", "setting": "Crl:CoBs CD(SD) rats; males of Groups 4 (300 mg/kg/day × 30 days) and 5 (1000 mg/kg/day × 30 days), Group 5 females", "result": "increased"}, {"measurement": "dilated pelves of kidneys, number of animals", "setting": "Crl:CoBs CD(SD) rats; males, Group 5 (1000 mg/kg/day)", "result": "three"}, {"measurement": "Safety Ratio daily dose; MES", "setting": "Crl:CoBs CD(SD) rats; rat, oral, 100 mg/kg/day × 30 days vs oral MES ED50", "result": 2.1}, {"measurement": "safety ratio, dose to signs of liver enlargement following 30 days medication relative to oral anti-convulsant dose", "setting": "Crl:CoBs CD(SD) rats; rats, threshold daily dose 100 mg/kg", "result": 2.1}, {"measurement": "hexobarbital sleep time", "setting": "hexobarbital sleep time; 5-day treated (48 mg/kg)", "result": "44.4 ± 1.9", "unit": "min"}, {"measurement": "hexobarbital sleep time", "setting": "hexobarbital sleep time; acute control (single dose 48 mg/kg)", "result": "34.3 ± 1.1", "unit": "min"}, {"measurement": "ED50", "setting": "[1]", "result": 454, "unit": "mg/kg"}]}
